{
  "source": "patent US20090264383A1",
  "about": "“Inhibitor of Adenylyl Cyclase for Treating a Disorder of the Circadian Rhythm” (Medical Research Council, priority 2006, published 2009)",
  "key": {"organotypic SCN slices": {"test_system": "organotypic SCN slices", "experiment": "Bioluminescence recording of circadian gene expression in organotypic SCN slices (mPer1::luc / PER2::LUC)", "type": "cell-based, mice", "conditions": "for rescue of circadian gene expression in MDL-treated SCN slices: PER2-LUC SCN slices pre-treated with MDL (2.5 μM), Epac agonist 100 μM; for effect on circadian amplitude / gene expression / effect on circadian period: wild-type mPer1::luc / PER2::LUC SCN slices", "protocol": "Per1::luciferase and; Per2-luc transgenic mice were used. For organotypic slice culture, brains were removed from pups 5-10 days old and sectioned at 300 um with a McIlwain “Tissue Chopper.” Slices were sorted and trimmed to contain principally SCN tissue and placed onto a Millipore membrane insert (PICMORG) for culture at 37° C. in 5% CO2 as described previously (Gainer et al, 1998).\nRecordings of luciferase activity from organotypic slices of SCN or peripheral tissues were made from 5-7 day old pups from PER2::LUC and, Per1::LUC mice using either photomultiplier assemblies for whole tissue emission or CCD camera for single SCN cell imaging (Hamamatsu Photonics Ltd, U.K.) as described May Wood et al 2006 Curr. Biol. Vol. 16 pp 599-605. cAMP-ELISA kit was purchased from R&D systems (Wiesbaden, Germany). NIH 3T3 cells were cultured as described (Kume et al 1999 Cell Vol 98 pp 193-205) and transfected using Genejuice (Novagen, San Diego, Calif.). […] Drugs were solubilized in medium or dimethylsulfoxide (DMSO) to make stock solutions 50-1000× the working solutions. [DMSO] was never greater than 0.4%. RNA-interference against Epac1 and Epac 2 used pre-validated sequences as instructed (Validated Stealth RNAi, Invitrogen, CA). Western Blots were performed as Reddy et al (2006 Curr. Biol. Vol 16 oo 1107-15). Behavioural rhythms, recorded by running wheel and passive infra-red movement detectors, were analysed in Clocklab (Actimetrics, Evanston Ill.). Central cannulae directed stereotaxically at the SCN and sub-cutaneous minipumps (Alzet® model 1002 pump and brain infusion kit II) for drug infusion were fitted as instructed (Durect Corp. Cupertino, Calif.).\n(§1) Statistical analysis was performed using Prism GraphPad™ and Statview™. Periods were calculated over ≧3 days recoding For comparative purposes, transcriptional amplitude from PMT recordings was calculated as 100× (post-treatment emission peak-trough/pre-treatment peak-trough). In all cases error bars indicate SEM about the mean where n≧3."}, "JNK phosphorylation": {"test_system": "JNK phosphorylation", "experiment": "Western blot of 3T3 cell extracts (JNK and CREB phosphorylation)", "type": "cell-based, mouse", "conditions": "for CREB phosphorylation (pCREB): 3T3 cells given MDL, Epac agonist; for JNK phosphorylation (pJNK): 3T3 cells, MDL 5.0 μm 40 hours, Epac agonist 100 μM, 2 hours", "protocol": "Epac had no effect on CREB phosphorylation.\n(§2) Recordings of luciferase activity from organotypic slices of SCN or peripheral tissues were made from 5-7 day old pups from PER2::LUC and, Per1::LUC mice using either photomultiplier assemblies for whole tissue emission or CCD camera for single SCN cell imaging (Hamamatsu Photonics Ltd, U.K.) as described May Wood et al 2006 Curr. Biol. Vol. 16 pp 599-605. cAMP-ELISA kit was purchased from R&D systems (Wiesbaden, Germany). NIH 3T3 cells were cultured as described (Kume et al 1999 Cell Vol 98 pp 193-205) and transfected using Genejuice (Novagen, San Diego, Calif.). All drugs were purchased from Sigma-Aldrich (Poole, UK) except PKA/Epac-active cAMP analogues (Axxora; Grünberg; Germany) and KT5720 (Calbiochem, Nottingbam, UK). Drugs were solubilized in medium or dimethylsulfoxide (DMSO) to make stock solutions 50-1000× the working solutions. [DMSO] was never greater than 0.4%. RNA-interference against Epac1 and Epac 2 used pre-validated sequences as instructed (Validated Stealth RNAi, Invitrogen, CA). Western Blots were performed as Reddy et al (2006 Curr. Biol. Vol 16 oo 1107-15). Behavioural rhythms, recorded by running wheel and passive infra-red movement detectors, were analysed in Clocklab (Actimetrics, Evanston Ill.). Central cannulae directed stereotaxically at the SCN and sub-cutaneous minipumps (Alzet® model 1002 pump and brain infusion kit II) for drug infusion were fitted as instructed (Durect Corp. Cupertino, Calif.)."}, "NIH 3T3 cells": {"test_system": "NIH 3T3 cells", "experiment": "Circadian gene expression in NIH 3T3 cells transfected with mBmal1::luc reporter", "type": "cell-based, mouse", "from_the_text": "Inhibition of the Gsα-binding site of AC caused a dose-dependent, reversible, dampening of circadian gene expression from Per1::luciferase organotypic SCN slice cultures, monitored by photomultiplier tubes. To determine the generality of this effect, we examined 3-T3 fibroblast cells. Abrogation of the endogenous oscillation of cAMP concentration stopped circadian gene expression as reported by Bmal1::luciferase reporter constructs P-site AC inhibition prolonged fibroblast period from ca. 21 hours to ca. 30 hours.\nas §2, §1"}, "circadian period": {"test_system": "circadian period", "conditions": "0.3% lithium; 25% D2O; cited from earlier work"}, "circadian clock": {"test_system": "circadian clock", "conditions": "administered in the evening; cited from earlier work"}, "Water solubility": {"experiment": "Water solubility", "type": "physicochemical", "conditions": "water; read-out: water soluble up to"}},
  "note": "Entries after “also recorded” stand apart in the source; their conditions may differ.",
  "data": [
    {"smiles": "COC1C2OP(O)(=S)OCC2OC1n1c(Sc2ccc(Cl)cc2)nc2c(N)ncnc21", "note": "(stereo not shown) [Sp-8-CPT-2′-O-Me-cAMPS]", "values": [
      {"measurement": "rescue of circadian gene expression in MDL-treated SCN slices", "setting": "organotypic SCN slices", "value": "dramatically restored circadian output"},
      {"measurement": "rescue of circadian gene expression in MDL-treated SCN slices", "setting": "organotypic SCN slices; listed as Epac agonist", "value": "can be rescued; also recorded: acute activation and synchronisation of cellular circadian gene expression; also recorded: significantly increased luciferase activity; also recorded: transiently activated and re-synchronised circadian gene expression"},
      {"measurement": "effect on circadian amplitude / gene expression", "setting": "organotypic SCN slices", "value": "no significant effect"},
      {"measurement": "effect on circadian period", "setting": "organotypic SCN slices", "value": "no significant effect"},
      {"measurement": "CREB phosphorylation (pCREB)", "setting": "JNK phosphorylation; listed as Epac", "value": "no effect"},
      {"measurement": "CREB phosphorylation (pCREB)", "setting": "JNK phosphorylation; listed as Epac agonist", "value": "not pCREB"},
      {"measurement": "JNK phosphorylation (pJNK)", "setting": "JNK phosphorylation; listed as Epac", "value": "significant increase in JNK activation"},
      {"measurement": "JNK phosphorylation (pJNK)", "setting": "JNK phosphorylation; listed as Epac agonist", "value": "reverses the decline in JNK phosphorylation; also recorded: increased pJNK"}
    ]},
    {"smiles": "CC(C)Cn1c(=O)n(C)c(=O)c2[nH]cnc21", "note": "[IBMX]", "values": [
      {"measurement": "effect on circadian period", "setting": "NIH 3T3 cells; 3T3 fibroblasts", "value": "lengthened period in fibroblasts"},
      {"measurement": "effect of THFA combined with IBMX on circadian period", "setting": "NIH 3T3 cells; THFA 1 mM plus IBMX 300 uM", "value": "did not enhance the effect of THFA"}
    ]},
    {"smiles": "CCCCCCOC(=O)[C@]1(O)C[C@@H]2O[C@@]1(C)n1c3ccccc3c3c4c(c5c6ccccc6n2c5c31)C(=O)NC4", "note": "[KT5720]", "values": [
      {"measurement": "effect on circadian amplitude / gene expression", "setting": "organotypic SCN slices", "value": "no significant effect"},
      {"measurement": "effect on circadian period", "setting": "organotypic SCN slices", "value": "no significant effect"}
    ]},
    {"smiles": "[2H]O[2H]", "note": "[D2O]", "values": [
      {"measurement": "lengthening of period", "setting": "circadian period", "value": "approximately 5%"}
    ]},
    {"smiles": "COc1ccc2[nH]cc(CCNC(C)=O)c2c1", "note": "[Melatonin]", "values": [
      {"measurement": "phase resetting effect on the circadian clock", "setting": "circadian clock", "value": "approximately 30 minutes/day"}
    ]},
    {"smiles": "C[C@H]1O[C@@H](n2cnc3c(N)ncnc32)C[C@@H]1O", "note": "[2′,5′-dideoxyadenosine, 2′,5′-Dideoxyadenosine]", "values": [
      {"measurement": "effect on circadian period", "setting": "organotypic SCN slices", "value": "Reversible period lengthening; also recorded: Period was lengthened"},
      {"measurement": "solubility", "setting": "Water solubility", "value": "≥ 125", "unit": "mM"}
    ]}
  ]
}
